Results taken from patent publication US11540518B2, “Fungicidal oxadiazoles” (FMC Corporation, priority 2017, dated 2023).

Tests used:
[1] = test system: Phakopsora pachyrhizi; experiment: Test A: Asian soybean rust control on soybean seedlings; format: in vivo; conditions: sprayed to run-off on soybean seedlings, inoculated the following day, 100 = 100% disease control, 0 = no control; for pest or weed control at 10 ppm: Phakopsora pachyrhizi, 216 h, read-out: Test A disease control rating
Description: General protocol for preparing test suspensions for Tests A-C: the test compounds were first dissolved in acetone in an amount equal to 3% of the final volume and then suspended at the desired concentration (in ppm) in acetone and purified water (50/50 mix by volume) containing 250 ppm of the surfactant PEG400 (polyhydric alcohol esters). The resulting test suspensions were then used in Tests A-C.
The test solution was sprayed to the point of run-off on soybean seedlings. The following day the seedlings were inoculated with a spore suspension of Phakopsora pachyrhizi (the causal agent of Asian soybean rust) and incubated in a saturated atmosphere at 22° C. for 24 h, and then moved to a growth chamber at 22° C. for 8 days, after which time visual disease ratings were made.
Results for Tests A-C are given in Table A. In the Table, a rating of 100 indicates 100% disease control and a rating of 0 indicates no disease control (relative to the controls). A dash (-) indicates the compound was not tested.

[2] = test system: Puccinia recondita f. sp. tritici; experiment: Test C: wheat leaf rust control on wheat seedlings; format: in vivo; conditions: sprayed to run-off on wheat seedlings, inoculated the following day, 100 = 100% disease control, 0 = no control; for pest or weed control at 10 ppm: Puccinia recondita, 168 h, read-out: Test C disease control rating
Description: General protocol for preparing test suspensions for Tests A-C: the test compounds were first dissolved in acetone in an amount equal to 3% of the final volume and then suspended at the desired concentration (in ppm) in acetone and purified water (50/50 mix by volume) containing 250 ppm of the surfactant PEG400 (polyhydric alcohol esters). The resulting test suspensions were then used in Tests A-C. The test solution was sprayed to the point of run-off on wheat seedlings. The following day the seedlings were inoculated with a spore suspension of Puccinia recondita f. sp. tritici (the causal agent of wheat leaf rust) and incubated in a saturated atmosphere at 20° C. for 24 h, and then moved to a growth chamber at 20° C. for 6 days, after which time disease ratings were made. Results for Tests A-C are given in Table A. In the Table, a rating of 100 indicates 100% disease control and a rating of 0 indicates no disease control (relative to the controls). A dash (-) indicates the compound was not tested.

CCNC(=O)OC(C)c1ccc(-c2noc(C(F)(F)F)n2)cc1 (racemic) [Compound 19]
Test A disease control rating ([1]; 10 ppm): 100% | Test C disease control rating ([2]; 10 ppm): 74%

COC(=O)c1ccc(CNC(=O)OC(C)c2ccc(-c3noc(C(F)(F)F)n3)cc2)cc1 (racemic) [Compound 25]
Test A disease control rating ([1]; 10 ppm): 100% | Test C disease control rating ([2]; 10 ppm): 26%

CCOC(=O)c1ccc(CNC(=O)OC(C)c2ccc(-c3noc(C(F)(F)F)n3)cc2)cc1 (racemic) [Compound 27]
Test A disease control rating ([1]; 10 ppm): 100% | Test C disease control rating ([2]; 10 ppm): 0%

CCNC(=O)OCCCc1ccc(-c2noc(C(F)(F)F)n2)cc1 [Compound 20]
Test A disease control rating ([1]; 10 ppm): 100% | Test C disease control rating ([2]; 10 ppm): 99%

O=C(OCCCc1ccc(-c2noc(C(F)(F)F)n2)cc1)n1ccnc1 [Compound 21]
Test A disease control rating ([1]; 50 ppm): 100% | Test C disease control rating ([2]; 50 ppm): 99%

O=C(Nc1cccnc1)OCc1ccc(-c2noc(C(F)(F)F)n2)cc1 [Compound 22]
Test A disease control rating ([1]; 10 ppm): 99% | Test C disease control rating ([2]; 10 ppm): 97%

CC(OC(=O)Nc1cccnc1)c1ccc(-c2noc(C(F)(F)F)n2)cc1 (centres unmarked) [Compound 23, 1-[4-[5-(trifluoromethyl)-1,2,4-oxadiazol-3-yl]phenyl]ethyl N-3-pyridinylcarbamate]
pest or weed control at 10 ppm ([1]; 10 ppm): 100% | pest or weed control at 10 ppm ([2]; 10 ppm): 97%

COC(=O)c1ccc(CNC(=O)OCc2ccc(-c3noc(C(F)(F)F)n3)cc2)cc1 [Compound 24]
Test A disease control rating ([1]; 10 ppm): 13% | Test C disease control rating ([2]; 10 ppm): 68%

CCOC(=O)c1ccc(CNC(=O)OCc2ccc(-c3noc(C(F)(F)F)n3)cc2)cc1 [Compound 26]
Test A disease control rating ([1]; 10 ppm): 95% | Test C disease control rating ([2]; 10 ppm): 26%

CN(C)C(=O)OCCCc1ccc(-c2noc(C(F)(F)F)n2)cc1 [Compound 28]
Test A disease control rating ([1]; 10 ppm): 100% | Test C disease control rating ([2]; 10 ppm): 40%

C=CCNC(=O)OCCCc1ccc(-c2noc(C(F)(F)F)n2)cc1 [Compound 29]
Test A disease control rating ([1]; 10 ppm): 100% | Test C disease control rating ([2]; 10 ppm): 74%

C#CCNC(=O)OCCCc1ccc(-c2noc(C(F)(F)F)n2)cc1 [Compound 30]
Test A disease control rating ([1]; 10 ppm): 100% | Test C disease control rating ([2]; 10 ppm): 99%

CNC(=O)OCCCc1ccc(-c2noc(C(F)(F)F)n2)cc1 [Compound 31]
Test A disease control rating ([1]; 10 ppm): 100% | Test C disease control rating ([2]; 10 ppm): 99%

O=C(Nc1cccnc1)OCCc1ccc(-c2noc(C(F)(F)F)n2)cc1 [Compound 34]
Test A disease control rating ([1]; 50 ppm): 100% | Test C disease control rating ([2]; 50 ppm): 98%

O=C(Nc1cccnc1)OCCCc1ccc(-c2noc(C(F)(F)F)n2)cc1 [Compound 35]
Test A disease control rating ([1]; 50 ppm): 100% | Test C disease control rating ([2]; 50 ppm): 100%

CC#CCNC(=O)OCc1ccc(-c2noc(C(F)(F)F)n2)cc1 [Compound 36]
Test A disease control rating ([1]; 10 ppm): 100% | Test C disease control rating ([2]; 10 ppm): 100%

C#CCNC(=O)OCc1ccc(-c2noc(C(F)(F)F)n2)s1 [Compound 37]
Test A disease control rating ([1]; 50 ppm): 100% | Test C disease control rating ([2]; 50 ppm): 100%

O=C(OCCc1ccc(-c2noc(C(F)(F)F)n2)cc1)n1ccnc1 [Compound 40, 2-[4-[5-(trifluoromethyl)-1,2,4-oxadiazol-3-yl]phenyl]ethyl-1H-imidazole-1-carboxylate]
pest or weed control at 10 ppm ([1]; 10 ppm): 0% | pest or weed control at 10 ppm ([2]; 10 ppm): 18%

NC(=O)OCCc1ccc(-c2noc(C(F)(F)F)n2)cc1 [Compound 41]
Test A disease control rating ([1]; 10 ppm): 100% | Test C disease control rating ([2]; 10 ppm): 99%

CN(C)C(=O)OCCc1ccc(-c2noc(C(F)(F)F)n2)cc1 [Compound 44]
Test A disease control rating ([1]; 10 ppm): 100% | Test C disease control rating ([2]; 10 ppm): 41%

C#CCNC(=O)OCCc1ccc(-c2noc(C(F)(F)F)n2)cc1 [Compound 45]
Test A disease control rating ([1]; 10 ppm): 100% | Test C disease control rating ([2]; 10 ppm): 93%

COC(=O)c1ccc(NC(=O)OCc2ccc(-c3noc(C(F)(F)F)n3)cc2)cc1 [Compound 47]
Test A disease control rating ([1]; 50 ppm): 100% | Test C disease control rating ([2]; 50 ppm): 41%

COC(=O)c1ccc(NC(=O)OC(C)c2ccc(-c3noc(C(F)(F)F)n3)cc2)cc1 (centres unmarked) [Compound 48]
Test A disease control rating ([1]; 50 ppm): 100% | Test C disease control rating ([2]; 50 ppm): 97%

COC(=O)c1ccc(NC(=O)OCCc2ccc(-c3noc(C(F)(F)F)n3)cc2)cc1 [Compound 49]
Test A disease control rating ([1]; 50 ppm): 96% | Test C disease control rating ([2]; 50 ppm): 0%

COC(=O)c1ccc(NC(=O)OCCCc2ccc(-c3noc(C(F)(F)F)n3)cc2)cc1 [Compound 50]
Test A disease control rating ([1]; 50 ppm): 0% | Test C disease control rating ([2]; 50 ppm): 0%

C=CCNC(=O)OCc1ccc(-c2noc(C(F)(F)F)n2)cc1 [Compound 51]
Test A disease control rating ([1]; 10 ppm): 100% | Test C disease control rating ([2]; 10 ppm): 99%

CCN(C)C(=O)OCc1ccc(-c2noc(C(F)(F)F)n2)cc1 [Compound 52]
Test A disease control rating ([1]; 10 ppm): 100% | Test C disease control rating ([2]; 10 ppm): 68%

CCN(CC)C(=O)OCc1ccc(-c2noc(C(F)(F)F)n2)cc1 [Compound 53]
Test A disease control rating ([1]; 10 ppm): 100% | Test C disease control rating ([2]; 10 ppm): 68%

O=C(NC1CC1)OCc1ccc(-c2noc(C(F)(F)F)n2)cc1 [Compound 54]
Test A disease control rating ([1]; 10 ppm): 100% | Test C disease control rating ([2]; 10 ppm): 92%

N#CCNC(=O)OCc1ccc(-c2noc(C(F)(F)F)n2)cc1 [Compound 55]
Test A disease control rating ([1]; 10 ppm): 100% | Test C disease control rating ([2]; 10 ppm): 86%

CCOC(=O)c1ccc(NC(=O)OCc2ccc(-c3noc(C(F)(F)F)n3)cc2)cc1 [Compound 57]
Test A disease control rating ([1]; 10 ppm): 100% | Test C disease control rating ([2]; 10 ppm): 0%

CCOC(=O)c1ccc(NC(=O)OC(C)c2ccc(-c3noc(C(F)(F)F)n3)cc2)cc1 (centres unmarked) [Compound 58]
Test A disease control rating ([1]; 50 ppm): 100% | Test C disease control rating ([2]; 50 ppm): 79%

CCOC(=O)c1ccc(NC(=O)OCCc2ccc(-c3noc(C(F)(F)F)n3)cc2)cc1 [Compound 59]
Test A disease control rating ([1]; 50 ppm): 96% | Test C disease control rating ([2]; 50 ppm): 0%

CCOC(=O)c1ccc(NC(=O)OCCCc2ccc(-c3noc(C(F)(F)F)n3)cc2)cc1 [Compound 60]
Test A disease control rating ([1]; 50 ppm): 0% | Test C disease control rating ([2]; 50 ppm): 0%

C#CCNC(=O)OC(C)c1ccc(-c2noc(C(F)(F)F)n2)s1 (centres unmarked) [Compound 61]
Test A disease control rating ([1]; 10 ppm): 100% | Test C disease control rating ([2]; 10 ppm): 100%

CC#CCNC(=O)OC(C)c1ccc(-c2noc(C(F)(F)F)n2)cc1 (centres unmarked) [Compound 62]
Test A disease control rating ([1]; 50 ppm): 100% | Test C disease control rating ([2]; 50 ppm): 100%

CC#CCNC(=O)OCCc1ccc(-c2noc(C(F)(F)F)n2)cc1 [Compound 63]
Test A disease control rating ([1]; 50 ppm): 100% | Test C disease control rating ([2]; 50 ppm): 100%
